Experimental data as given in publication PMC1769465, “Toxicity Assays in Nanodrops Combining Bioassay and Morphometric Endpoints” (PLoS ONE, 2007).
Read-outs that look alike come from different tables or passages of the source.

Columns and labels:
[1] = tested on: HepG2 A10/hsp22 stress inducible clone; details: for IC50: read-out: IC50 (Cell Number)
[2] = tested on: EGFP expressing stress inducible clones; parameters: method as in PMID 16492392; details: 6 h toxic induction combined with a 12–18 h recovery period; read-out: IC50 in 96 well format assays; cited from earlier work
HepG2 cells [3] = tested on: HepG2 cells; parameters: method as in PMID 16111842; details: read-out: IC50, MTT assay, cited from earlier work
HepG2 cells [4] = tested on: HepG2 cells; parameters: method as in PMID 16111842; details: read-out: IC50, neutral red quantification, cited from earlier work
HeLa cells = details: cited from earlier work
HepG2 cells [5] = details: cited from earlier work
[6] = tested on: HepG2 A10/hsp22 stress inducible clone; experiment: cells; format: cell-based, human
[7] = tested on: Drosophila melanogaster hsp22 promoter; format: cell-based; details: for IC50: read-out: IC50 derived from KS curves, EGFP expression
hsp22 promoter = details: cited from earlier work
[8] = tested on: HepG2 A10/hsp22 stress inducible clone; experiment: cells; details: Homo sapiens, HepG2, read-out: IC50 (Cell Number)
[9] = […], linear regression, two independent experiments
[10] = calculated on Kolmogorov-Smirnov score curves
[11] = same stress inducible clones, 96-well format

Which “doses giving an obvious decrease in cell number” value (from here on “doses giving an obvious decrease”) [1] does the source give for `[Cl][Cd][Cl]` [CdCl2, Cadmium chloride] here?
The value was “greater than 20 µM”.

What about the IC50 [1, 9] of the same compound?
The IC50 was 83 µM.

And the IC50 [2]?
Its IC50 is 50 µM.

And the IC50 (HepG2 cells [3]; HepG2, 3 h exposure)?
Its IC50 is 500 µM.

And the IC50 (HepG2 cells [3]; HepG2, 5 h exposure)?
The IC50 was 100 µM.

And the IC50 (HepG2 cells [3]; HepG2, 8 h exposure)?
Its IC50 is 40 µM.

And the IC50 (HepG2 cells [3]; HepG2, 24 h exposure)?
The IC50 was 15 µM.

What about the IC50 (HepG2 cells [4]; HepG2, 5 h exposure) of the same compound?
Its IC50 is 100 µM.

What about the IC50 (HepG2 cells [4]; HepG2, 8 h exposure) of the same compound?
The IC50 was 80 µM.

What about the IC50 (HepG2 cells [4]; HepG2, 24 h exposure) of the same compound?
The IC50 was 8 µM.

And the CC50 (HeLa cells)?
The CC50 was 50 µM.

What about the “concentration that elicited mild (20–25%) cytotoxicity” value (HepG2 cells [5]; HepG2, 24 h exposure) of the same compound?
Its value is 40 µM.

And the “concentration that elicited minimal (≤5%) cytotoxicity” value (HepG2 cells [5]; HepG2, 24 h exposure)?
The value was 15 µM.

What about the “concentration that elicited more severe (approximately 50%) cytotoxicity” value (HepG2 cells [5]; HepG2, 24 h exposure) of the same compound?
Its value is 60 µM.

And the IC50 (HepG2 cells [5]; read-out: IC50 for cytotoxicity, HepG2, 24 h exposure)?
Its IC50 is 60 to 70 µM.

What about the “concentrations causing a decrease in Shape Index” value ([6]; HepG2 A10 clone) of the same compound?
The value was “above 20 µM”.

And the “IC50 for Shape Index” value [6, 9]?
Its value is 32 µM.

What about the IC50 ([6]; […], linear regression, two independent experiments, read-out: IC50 for Cell Area) of the same compound?
The IC50 was 29 µM.

What about the IC50 ([6]; […], linear regression, two independent experiments, read-out: IC50 for Cell Roundness) of the same compound?
Its IC50 is 52 µM.

What about the “IC50 derived from KS curves, Shape Index” value [6, 10] of the same compound?
Its value is 48 µM.

What about the IC50 ([6]; calculated on Kolmogorov-Smirnov score curves, read-out: IC50 derived from KS curves, Cell Area) of the same compound?
Its IC50 is 25 µM.

And the IC50 ([6]; calculated on Kolmogorov-Smirnov score curves, read-out: IC50 derived from KS curves, Roundness)?
Its IC50 is 60 µM.

What about the “Cell Area after toxic insult (cell shrinkage)” value (shortened to “Cell Area after toxic insult”) ([6]; decrease from around 900 µm^2) of the same compound?
The value was “around 400 µm^2”.

What about the “dose at which increase in Cell Roundness occurred” value ([6]; late dose, particularly with cadmium) of the same compound?
The value was 100 µM.

What about the “dose at which EGFP expression could be detected” value [7] of the same compound?
The value was 50 µM.

And the “dose at which hsp22 promoter activation (EGFP) disappeared” value [7]?
The value was 100 µM.

What about the “dose of maximum activation of hsp22 promoter (EGFP expression)” value [7] of the same compound?
Its value is “around 50 µM”.

And the IC50 [7, 10]?
Its IC50 is 28 µM.

What about the induction windows (hsp22 promoter; reported) of the same compound?
The induction windows was 10 to 100 µM.

What about the “concentration over which promoter activity gradually decreased” value (hsp22 promoter; [11]) of the same compound?
The value was “over 60 µM”.

What about the “peak expression of EGFP (concentration)” value (hsp22 promoter; [11]) of the same compound?
Its value is “around 50 µM”.

With `C[n+]1ccc(-c2cc[n+](C)cc2)cc1` [Paraquat] as the compound, how does the “doses giving an obvious decrease” value ([1]; human) read?
The value was “greater than 20 µM”.

What about the IC50 ([6]; Homo sapiens, HepG2, 6 h, […], linear regression, two independent experiments, read-out: IC50 for Cell Area) of the same compound?
The IC50 was 44 µM.

And the “IC50 for Shape Index” value [6, 9]?
Its value is 29 µM.

What about the “Shape Index effect (in words)” value ([6]; compared with Arsenate and Cadmium) of the same compound?
Its value is “did not induce as significant a decrease of this index”.

And the “Cell Roundness effect (in words)” value ([6]; compared with heavy metals)?
Its value is “produced a less significant effect”.

And the “Cell Area after toxic insult” value ([6]; decrease from around 900 µm^2)?
The value was 700 µm^2.

What about the “EGFP expression with hsp22 promoter (in words)” value ([7]; HepG2 A10 clone, 0.5 µM to 1 mM) of the same compound?
Its value is “did not induce any significant EGFP expression”.

What about the IC50 [8] of the same compound?
The IC50 was 88 µM.

Which “doses giving an obvious decrease” value [1] does the source give for Sodium arsenate here?
Its value is “greater than 20 µM”.

What about the IC50 [1] of the same compound?
The IC50 was 85 µM.

What about the IC50 (HepG2 cells [5]) of the same compound?
The IC50 was 60 to 70 µM.

And the “concentration that elicited mild (20–25%) cytotoxicity” value (HepG2 cells [5])?
Its value is 55 µM.

And the “concentration that elicited minimal (≤5%) cytotoxicity” value (HepG2 cells [5])?
The value was 15 µM.

What about the “concentration that elicited more severe (approximately 50%) cytotoxicity” value (HepG2 cells [5]) of the same compound?
The value was 70 µM.

What about the “Cell Area after toxic insult” value [6] of the same compound?
Its value is “around 400 µm^2”.

What about the “IC50 derived from KS curves, Roundness” value [6] of the same compound?
Its value is “no significant Roundness effect”.

What about the “IC50 derived from KS curves, Shape Index” value [6] of the same compound?
The value was 32 µM.

What about the “IC50 for Shape Index” value [6] of the same compound?
The value was 24 µM.

What about the “concentrations causing a decrease in Shape Index” value [6] of the same compound?
Its value is “above 20 µM”.

What about the “dose after which Shape Index distribution was significantly different from control (KS)” value [6] of the same compound?
Its value is > 50 µM.

What about the “dose at which Cell Area reached the KS score 0.2 threshold” value [6] of the same compound?
Its value is 5 µM.

And the “dose at which increase in Cell Roundness occurred” value [6]?
Its value is 100 µM.

What about the IC50 ([6]; read-out: IC50 derived from KS curves, Cell Area) of the same compound?
Its IC50 is 19 µM.

What about the IC50 ([6]; read-out: IC50 for Cell Area) of the same compound?
The IC50 was 29 µM.

What about the IC50 ([6]; read-out: IC50 for Cell Roundness) of the same compound?
The IC50 was 59 µM.

What about the “dose at which EGFP Grey Level reached the KS score 0.2 threshold” value [7] of the same compound?
The value was 10 µM.

What about the “dose at which EGFP expression could be detected” value [7] of the same compound?
The value was 20 µM.

And the “dose at which hsp22 promoter activation (EGFP) disappeared” value [7]?
Its value is 100 µM.

What about the IC50 [7] of the same compound?
The IC50 was 19 µM.

What about the induction windows (hsp22 promoter) of the same compound?
The induction windows was 10 to 100 µM.
